Reference: the supplement of paper PMC4862054

How the values were obtained:
Settings in all cases: incubation time: 72 h
[1] = tested on: CAL-120; experiment: normalised response (% of control), CellTox Green; higher = less cell death (100 = DMSO, 0 = benzethonium chloride kill control)
In short: (§1)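 Plates were normalised with 0.1 % DMSO as 100 and a positive kill control as 0. Breast cancer cell lines in 20 µl suspension had been seeded into 384-well plates with compound at 5 concentrations in 10-fold steps over a compound-specific 10,000-fold range, incubated 72 h, and read for CellTox Green fluorescence (485/520 nm) followed by CellTiter-Glo luminescence. Each value is the normalised signal at a single concentration.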

[2] = tested on: CAL-85-1; experiment: as above
In short: as §1

[3] = tested on: MDA-MB-468; experiment: as above
In short: as §1

[4] = tested on: CAL-148; experiment: as above
In short: as §1

[5] = tested on: CAL-51; experiment: as above
In short: as §1

[6] = tested on: HCC1599; experiment: as above
In short: as §1

[7] = tested on: HCC1143; experiment: as above
In short: as §1

[8] = tested on: HCC1937; experiment: as above
In short: as §1

[9] = tested on: MCF-10A; experiment: as above
In short: as §1

[10] = tested on: MDA-MB-231; experiment: as above
In short: as §1

[11] = tested on: Hs578T; experiment: as above
In short: as §1

[12] = tested on: BT-474; experiment: as above
In short: as §1

[13] = tested on: DU-4475; experiment: as above
In short: as §1

[14] = tested on: BT-549; experiment: as above
In short: as §1

[15] = tested on: MDA-MB-436; experiment: as above
In short: as §1

[16] = tested on: MDA-MB-453; experiment: as above
In short: as §1

[17] = tested on: MFM-223; experiment: as above
In short: as §1

[18] = tested on: CAL-120; experiment: normalised response (% of control), CellTiter-Glo; higher = more viable cells (100 = DMSO, 0 = benzethonium chloride kill control)
In short: as §1

[19] = tested on: CAL-85-1; experiment: as above
In short: as §1

[20] = tested on: MDA-MB-468; experiment: as above
In short: as §1

[21] = tested on: CAL-148; experiment: as above
In short: as §1

[22] = tested on: CAL-51; experiment: as above
In short: as §1

[23] = tested on: HCC1599; experiment: as above
In short: as §1

[24] = tested on: HCC1143; experiment: as above
In short: as §1

[25] = tested on: HCC1937; experiment: as above
In short: as §1

[26] = tested on: MCF-10A; experiment: as above
In short: as §1

[27] = tested on: SK-BR-3; experiment: as above
In short: as §1

[28] = tested on: MDA-MB-231; experiment: as above
In short: as §1

[29] = tested on: Hs578T; experiment: as above
In short: as §1

[30] = tested on: BT-474; experiment: as above
In short: as §1

[31] = tested on: HDQ-P1; experiment: as above
In short: as §1

[32] = tested on: DU-4475; experiment: as above
In short: as §1

[33] = tested on: BT-549; experiment: as above
In short: as §1

[34] = tested on: MDA-MB-436; experiment: as above
In short: as §1

[35] = tested on: MDA-MB-453; experiment: as above
In short: as §1

[36] = tested on: MFM-223; experiment: as above
In short: as §1

[37] = tested on: HDQ-P1; experiment: normalised response (% of control), CellTox Green; higher = less cell death (100 = DMSO, 0 = benzethonium chloride kill control)
In short: as §1

Row | SMILES | normalised response [1] | normalised response [2] | normalised response [3] | normalised response [4] | normalised response [5] | normalised response [6] | normalised response [7] | normalised response [8] | normalised response [9] | normalised response [10] | normalised response [11] | normalised response [12] | normalised response [13] | normalised response [14] | normalised response [15] | normalised response [16] | normalised response [17] | normalised response [18] | normalised response [19] | normalised response [20] | normalised response [21] | normalised response [22] | normalised response [23] | normalised response [24] | normalised response [25] | normalised response [26] | normalised response [27] | normalised response [28] | normalised response [29] | normalised response [30] | normalised response [31] | normalised response [32] | normalised response [33] | normalised response [34] | normalised response [35] | normalised response [36] | normalised response [37]
1 | Cc1nc(C(=O)NCC(=O)O)c(O)c2ccc(Oc3ccccc3)cc12 [FG-4592] (1000 nM) | 103% | 101% | 86% | 93% | 112% | 93.5% | 110% | 110% | 94.2% | 103% | 85.2% | 101% | 107% | 97.3% | 108% | 111% | 103% | 102% | 105% | 103% | 97.2% | 119% | 117% | 109% | 101% | 113% | 110% | 102% | 109% | 106% | 116% | 103% | 102% | 100% | 98.6% | 102% | 
2 | CN[C@@H](C)C(=O)N[C@H]1CN(C(=O)CC(C)C)CC[C@H]2CC[C@@H](C(=O)NC(c3ccccc3)c3ccccc3)N2C1=O [AT-406] (1000 nM) | 76.4% | 24% | 109% | 55.1% | 97.2% | 93.1% | 107% | 101% | 109% | -42.1% |  | 89.7% | 101% | 53.4% | 86.1% | 94.9% | 54.2% | 85.6% | 63.3% | 71.3% | 82.4% | 98.2% | 106% | 95.6% | 94% | 107% | 99.6% | 38.8% | 95.7% | 24.8% | 83.1% | 101% | 59.7% | 99.1% | 78.5% | 101% | 79.6%
3 | C=CCN(/C=C1/C(=O)O[C@H](COC)[C@@]2(C)C1=C(O)C(=O)C1=C2[C@H](OC(C)=O)C[C@]2(C)C(=O)CC[C@@H]12)CC=C [Sonolisib] (1000 nM) | 102% | 97% | 112% | 109% | 104% | 115% | 82.6% |  | 66.6% | 111% | 89.7% | 95.1% | 104% | 112% | 103% | 109% | 104% | 102% | 105% | 102% | 109% | 77.5% | 110% | 102% | 99.8% | 97.6% | 105% | 103% | 99.2% | 106% | 101% | 99% | 97.4% | 112% | 105% | 107% | 98.1%
4 | CC[C@H](CO)Nc1nc(NCc2ccccc2)c2ncn(C(C)C)c2n1 [Seliciclib] (1000 nM) | 101% | 95.5% |  | 106% | 101% | 103% | 107% | 125% | 101% | 114% | 86.4% | 101% | 99.2% | 117% | 84.6% | 102% | 95.6% | 97.4% | 112% | 110% | 104% | 80.4% | 111% | 103% | 105% | 95.3% | 106% | 104% | 109% | 96.9% | 101% | 101% | 95.8% | 107% | 115% | 109% | 92.7%
